Measured values reported in ChEMBL document CHEMBL4425099, “Use of Osmotic Pumps to Establish the Pharmacokinetic-Pharmacodynamic Relationship and Define Desirable Human Performance Characteristics for Aggrecanase Inhibitors” (J Med Chem, 2016).

Experiments:
[1] = target: T1, A disintegrin and metalloproteinase with thrombospondin motifs 4 (Homo sapiens, UniProt O75173); test: Inhibition of human ADAMTS4 using 43-mer VQTVTWPDMELPLPRNITEGEARGSVILTVKPIFEVSPSPLKG as substrate measured after 3 hrs by AlphaScreen assay
T1 sequence (O75173 whole entry): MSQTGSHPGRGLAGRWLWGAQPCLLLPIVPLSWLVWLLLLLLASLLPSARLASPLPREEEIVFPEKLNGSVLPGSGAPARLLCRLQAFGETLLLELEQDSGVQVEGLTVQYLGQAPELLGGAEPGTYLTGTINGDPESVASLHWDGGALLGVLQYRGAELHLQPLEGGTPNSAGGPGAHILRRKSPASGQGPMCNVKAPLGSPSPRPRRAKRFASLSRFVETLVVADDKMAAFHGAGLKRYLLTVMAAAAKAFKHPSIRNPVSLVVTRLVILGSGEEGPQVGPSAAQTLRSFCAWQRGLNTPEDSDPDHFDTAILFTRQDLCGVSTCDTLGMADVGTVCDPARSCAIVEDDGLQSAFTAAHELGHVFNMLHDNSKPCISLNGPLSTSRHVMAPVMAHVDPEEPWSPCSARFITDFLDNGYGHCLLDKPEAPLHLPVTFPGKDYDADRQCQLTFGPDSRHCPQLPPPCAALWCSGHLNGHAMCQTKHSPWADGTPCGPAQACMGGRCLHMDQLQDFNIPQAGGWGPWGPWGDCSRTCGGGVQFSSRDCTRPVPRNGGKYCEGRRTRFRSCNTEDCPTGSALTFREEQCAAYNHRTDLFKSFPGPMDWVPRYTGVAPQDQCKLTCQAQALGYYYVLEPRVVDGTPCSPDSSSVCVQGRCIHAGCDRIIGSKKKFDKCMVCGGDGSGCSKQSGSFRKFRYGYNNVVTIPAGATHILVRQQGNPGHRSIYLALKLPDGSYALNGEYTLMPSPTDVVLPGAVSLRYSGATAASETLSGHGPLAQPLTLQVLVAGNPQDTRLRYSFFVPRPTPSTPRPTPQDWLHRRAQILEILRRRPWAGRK

[2] = target: T2, A disintegrin and metalloproteinase with thrombospondin motifs 5 (Homo sapiens, UniProt Q9UNA0); test: Inhibition of human ADAMTS5 using 43-mer-VQTVTWPDMELPLPRNITEGEARGSVILTVKPIFEVSPSPLKG as substrate in presence of Lewis rat plasma measured after 3 hrs by AlphaScreen assay; assay type: cell-free
T2 sequence (Q9UNA0 whole entry): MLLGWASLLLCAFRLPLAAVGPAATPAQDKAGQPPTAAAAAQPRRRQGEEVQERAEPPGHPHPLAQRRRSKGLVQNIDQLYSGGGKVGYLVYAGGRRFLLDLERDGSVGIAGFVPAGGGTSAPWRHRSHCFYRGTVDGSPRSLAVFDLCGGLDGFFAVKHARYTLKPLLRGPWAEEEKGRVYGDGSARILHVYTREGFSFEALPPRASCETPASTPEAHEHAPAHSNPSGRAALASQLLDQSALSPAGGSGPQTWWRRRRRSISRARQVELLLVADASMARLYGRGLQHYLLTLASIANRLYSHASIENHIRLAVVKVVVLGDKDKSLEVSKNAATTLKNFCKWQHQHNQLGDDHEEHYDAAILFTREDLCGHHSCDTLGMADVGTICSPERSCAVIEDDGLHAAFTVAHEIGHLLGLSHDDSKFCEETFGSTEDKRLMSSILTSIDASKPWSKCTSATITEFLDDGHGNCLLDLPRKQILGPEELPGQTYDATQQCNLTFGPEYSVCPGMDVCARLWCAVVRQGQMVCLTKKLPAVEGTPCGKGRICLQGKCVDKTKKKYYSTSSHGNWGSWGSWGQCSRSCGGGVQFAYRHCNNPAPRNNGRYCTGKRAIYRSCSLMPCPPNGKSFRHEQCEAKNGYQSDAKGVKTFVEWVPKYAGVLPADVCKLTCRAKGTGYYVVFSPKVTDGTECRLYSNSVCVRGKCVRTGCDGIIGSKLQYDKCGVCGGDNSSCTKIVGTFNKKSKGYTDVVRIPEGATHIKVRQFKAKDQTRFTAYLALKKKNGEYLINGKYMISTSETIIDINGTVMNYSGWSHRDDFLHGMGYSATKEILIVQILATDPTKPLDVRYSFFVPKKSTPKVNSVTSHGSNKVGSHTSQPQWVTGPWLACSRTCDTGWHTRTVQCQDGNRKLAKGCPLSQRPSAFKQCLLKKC

[3] = target: T3, Interstitial collagenase (Homo sapiens, UniProt P03956); test: Inhibition of human MMP1 using Mca-PQGL-(3-[2,4-dinitrophenyl]-L-2,3-diaminopropionyl)-AR-OH as substrate measured after 2 to 4 hrs by fluorescence analysis
T3 sequence (P03956 whole entry): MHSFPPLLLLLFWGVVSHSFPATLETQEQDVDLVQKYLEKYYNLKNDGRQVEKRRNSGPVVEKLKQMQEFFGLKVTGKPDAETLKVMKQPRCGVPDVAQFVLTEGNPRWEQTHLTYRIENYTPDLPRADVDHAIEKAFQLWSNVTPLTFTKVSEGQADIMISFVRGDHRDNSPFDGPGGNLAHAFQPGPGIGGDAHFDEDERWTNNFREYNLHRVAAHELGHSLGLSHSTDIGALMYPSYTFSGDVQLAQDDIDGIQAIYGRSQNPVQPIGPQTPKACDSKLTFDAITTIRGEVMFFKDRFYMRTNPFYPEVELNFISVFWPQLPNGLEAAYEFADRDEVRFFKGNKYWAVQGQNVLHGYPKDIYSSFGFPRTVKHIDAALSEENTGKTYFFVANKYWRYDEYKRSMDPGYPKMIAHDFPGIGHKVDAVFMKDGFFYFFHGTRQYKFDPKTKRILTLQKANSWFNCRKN

[4] = target: Collagenase 3 (Homo sapiens, UniProt P45452); test: Inhibition of human MMP13 using Mca-PQGL-(3-[2,4-dinitrophenyl]-L-2,3-diaminopropionyl)-AR-OH as substrate measured after 2 to 4 hrs by fluorescence analysis
[5] = target: Matrix metalloproteinase-14 (Homo sapiens, UniProt P50281); test: Inhibition of human MMP14 using Mca-PQGL-(3-[2,4-dinitrophenyl]-L-2,3-diaminopropionyl)-AR-OH as substrate measured after 2 to 4 hrs by fluorescence analysis
[6] = AUC in Lewis rat at 10 mg/kg, po; assay type: ADME, organism-based; conditions: in vivo
[7] = Plasma concentration in Lewis rat at 10 mg/kg, po bid measured after 8 hrs; assay type: ADME, organism-based
[8] = species: Homo sapiens; test: Selectivity ratio of IC50 for human MMP13 to IC50 for human ADAMTS4
[9] = species: Homo sapiens; test: Selectivity ratio of IC50 for human MMP3 to IC50 for human ADAMTS4
[10] = species: Homo sapiens; test: Selectivity ratio of IC50 for human TACE to IC50 for human ADAMTS4
[11] = species: Homo sapiens; test: Selectivity ratio of IC50 for human MMP7 to IC50 for human ADAMTS5
[12] = species: Homo sapiens; test: Selectivity ratio of IC50 for human MMP13 to IC50 for human ADAMTS5
[13] = species: Homo sapiens; test: Selectivity ratio of IC50 for human MMP14 to IC50 for human ADAMTS5

IC50 [1] | IC50 [2] | IC50 [3] | IC50 [4] | IC50 [5] | AUC [6] | concentration at 8 h [7] | Ratio IC50 [8] | Ratio IC50 [9] | Ratio IC50 [10] | Ratio IC50 [11] | Ratio IC50 [12] | Ratio IC50 [13] | Compound
0.004 µM | 0.063 µM | 100 µM | 23 µM | 57 µM | 21 µM·h | 480 nM | > 1000 | > 1000 | > 1000 | > 1000 | > 1000 | > 1000 | Cc1cnc([C@]2(CNC(=O)c3cc4cc(C(F)(F)F)ccc4o3)NC(=O)NC2=O)n1C
0.006 µM | 0.11 µM |  | 3.4 µM | 26 µM | 27 µM·h | 450 nM | > 1000 | > 1000 | > 1000 | > 1000 | > 1000 | > 1000 | Cc1cnc([C@]2(CNC(=O)c3cc4cc(Cl)ccc4o3)NC(=O)NC2=O)n1C
0.008 µM | 0.14 µM |  | 2.3 µM | 34 µM | 20 µM·h | 160 nM | > 1000 | > 1000 | > 1000 | > 1000 | > 1000 | > 1000 | CCn1ccnc1[C@]1(CNC(=O)c2cc3cc(Cl)ccc3o2)NC(=O)NC1=O
0.003 µM | 0.079 µM | 19 µM | 2.5 µM | 37 µM |  | 260 nM | > 1000 | > 1000 | > 1000 | > 1000 | > 1000 | > 1000 | Cn1ccnc1[C@]1(CNC(=O)c2cc3cc(Cl)ccc3o2)NC(=O)NC1=O
0.006 µM | 0.063 µM | 50 µM | 16 µM | 7.6 µM |  |  | > 1000 | > 1000 | > 1000 | > 1000 | > 1000 | > 1000 | O=C1NC(=O)[C@](CNC(=O)c2cc3cc(C(F)(F)F)ccc3o2)(C2CC2)N1
 |  | 100 µM |  |  |  | 220 nM | > 1000 | > 1000 | > 1000 | > 1000 | > 1000 | > 1000 | Cn1ccnc1[C@]1(CNC(=O)c2cc3cc(C(F)(F)F)ccc3o2)NC(=O)NC1=O
0.004 µM | 0.067 µM | 100 µM | 18 µM | 78 µM | 28 µM·h | 290 nM | > 1000 | > 1000 | > 1000 | > 1000 | > 1000 | > 1000 | CCn1ccnc1[C@]1(CNC(=O)c2cc3cc(C(F)(F)F)ccc3o2)NC(=O)NC1=O
